The source made the active and inactive calls. The calls are words filed in the database; no cut-off is given here. Starred links: 1 amine or outer side, 2 acyl side, 3 side chain; linkers in the order of their positions; H or OH if unused. Residues, ends and D or L forms follow the SMILES beside them. Groups on a side chain read outwards from the residue. *: point of attachment. X1 = Cc1ccc(C)c(OCCCC(C)(C)C(=O)OCC(=O)NCCCCCCCCCC(NC(=O)COC(=O)C(C)(C)CCCOc2cc(C)ccc2C)C(=O)*)c1; γGlu = O=C(O)[C@H](CCC(=O)[*:2])N[*:1]
Experiments:
[1] = molecular target: Glucagon-like peptide 1 receptor (Homo sapiens, UniProt P43220); experiment: Agonist activity at human GLP-1R expressed in HEK293 cells assessed as stimulation of cAMP accumulation incubated for 60 mins by HTRF assay; assay type: functional, cell-based
Glucagon-like peptide 1 receptor, sequence (P43220 whole entry): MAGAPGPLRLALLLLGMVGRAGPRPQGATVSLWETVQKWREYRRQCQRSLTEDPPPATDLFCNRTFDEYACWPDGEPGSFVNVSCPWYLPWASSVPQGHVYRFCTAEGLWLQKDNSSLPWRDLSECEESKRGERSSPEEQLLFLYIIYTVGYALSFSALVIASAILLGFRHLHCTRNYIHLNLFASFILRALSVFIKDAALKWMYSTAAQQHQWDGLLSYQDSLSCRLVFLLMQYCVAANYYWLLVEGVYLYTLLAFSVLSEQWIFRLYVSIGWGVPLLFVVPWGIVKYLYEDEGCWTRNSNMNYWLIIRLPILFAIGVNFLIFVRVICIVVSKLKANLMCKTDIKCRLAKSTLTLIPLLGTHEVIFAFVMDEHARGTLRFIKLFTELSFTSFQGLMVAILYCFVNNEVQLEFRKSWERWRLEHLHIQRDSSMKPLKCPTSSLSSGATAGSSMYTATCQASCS

[2] = test system: Mus musculus; experiment: Hypoglycemic activity in 12 hrs fasted ICR mouse assessed as reduction in blood glucose level at 25 nmol/kg, ip dosed 30 mins before glucose challenge measured up to 120 mins by OGTT method; assay type: functional, organism-based; conditions: time 150.0 min
[3] = Stability in Sprague-Dawley rat plasma assessed as half life at 1000 ng/ml measured up to 48 hrs under shaking condition by LC-MS/MS analysis; assay type: ADME, cell-free
[4] = molecular target: Albumin (Homo sapiens, UniProt P02768); experiment: Binding affinity to human serum albumin assessed as retention factor by HPAC method; assay type: ADME
Albumin, sequence (P02768 whole entry): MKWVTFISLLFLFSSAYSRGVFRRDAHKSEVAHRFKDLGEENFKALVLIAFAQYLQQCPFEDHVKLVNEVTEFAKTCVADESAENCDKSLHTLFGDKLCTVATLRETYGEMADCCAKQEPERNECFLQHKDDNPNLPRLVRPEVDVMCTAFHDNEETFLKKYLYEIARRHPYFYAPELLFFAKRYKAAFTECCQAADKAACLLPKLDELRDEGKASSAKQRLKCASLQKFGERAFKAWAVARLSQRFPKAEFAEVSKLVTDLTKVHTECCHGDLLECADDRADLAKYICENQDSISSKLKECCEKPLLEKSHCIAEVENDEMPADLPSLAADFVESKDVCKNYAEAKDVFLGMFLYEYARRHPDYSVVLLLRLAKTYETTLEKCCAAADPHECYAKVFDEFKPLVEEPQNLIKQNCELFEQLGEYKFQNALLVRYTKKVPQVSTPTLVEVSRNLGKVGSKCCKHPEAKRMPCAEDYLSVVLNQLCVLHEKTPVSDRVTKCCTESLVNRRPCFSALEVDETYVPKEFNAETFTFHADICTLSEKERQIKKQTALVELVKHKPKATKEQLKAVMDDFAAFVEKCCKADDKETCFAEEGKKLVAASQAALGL

[5] = test system: Mus musculus; experiment: Hypoglycemic activity in non-fasted db/db mouse assessed as duration of time during which decrease in blood glucose concentration is observed at 25 nmol/kg, sc by OGTT method; assay type: functional
[6] = Half life in Sprague-Dawley rat at 50 nmol/kg, sc measured up to 24 hrs by LC-MS/MS analysis; assay type: ADME, organism-based; conditions: in vivo
[7] = Tmax in Sprague-Dawley rat at 50 nmol/kg, sc measured up to 24 hrs by LC-MS/MS analysis; assay type: ADME, organism-based; conditions: in vivo
[8] = test system: Mus musculus; experiment: Hypoglycemic activity in db/db mouse assessed as decrease in glucose excursion at 25 nmol/kg, ip dosed 30 mins before glucose challenge and measured up to 180 mins by OGTT method; assay type: functional, organism-based; conditions: time 210.0 min
[9] = test system: Mus musculus; experiment: Hypoglycemic activity in db/db mouse assessed as improvement in glucose tolerance at 25 nmol/kg, ip dosed 30 mins before glucose challenge and measured up to 180 mins by OGTT method; assay type: functional, organism-based; conditions: time 210.0 min
[10] = test system: Mus musculus; experiment: Insulinotropic activity in db/db mouse assessed as improvement in plasma insulin level at 25 nmol/kg, ip dosed 30 mins before glucose challenge and measured up to 60 mins by ELISA; assay type: functional, organism-based; conditions: time 90.0 min
[11] = test system: Mus musculus; experiment: Hypoglycemic activity in non-fasted sc dosed db/db mouse assessed as reduction in blood glucose treated 30 mins before glucose challenge and measured up to 48 hrs by OGTT method; assay type: functional, organism-based; conditions: dose 25-100 nmol/kg, time min <=2910
[12] = test system: Mus musculus; experiment: Anorectic activity in non-fasted sc dosed db/db mouse assessed as reduction in food intake treated 30 mins before glucose challenge and measured up to 48 hrs; assay type: functional, organism-based; conditions: time min <=2910
[13] = test system: Mus musculus; experiment: Hypoglycemic activity in 16 hrs fasted db/db mouse assessed as reduction in blood glucose level at 25 nmol/kg, ip treated 30 mins before glucose challenge and measured at 0 to 12 hrs by multiple OGTT; assay type: functional, organism-based; conditions: time 750.0 min
[14] = test system: Mus musculus; experiment: Gastric emptying in 6 hrs fasted ICR mouse assessed as reduction in blood paracetamol concentration at 25 nmol/kg, ip dosed 30 mins before paracetamol dosing measured up to 60 mins by LC-MS/MS analysis; assay type: functional, organism-based; conditions: time 90.0 min
[15] = Inhibition of solid-phase gastric emptying in 12 hrs fasted ICR mouse assessed reduction in gastric emptying rate at 25 nmol/kg, ip allowed for food intake 1 hrs and measured after 4 hrs […]; assay type: functional; parameters: scale not given: the % may be the effect or the level left
[16] = Hepatotoxicity in ICR mouse assessed as effect on aspartate aminotransferase level at 1000 nmol/kg, sc administered once daily for 2 weeks; assay type: toxicity, organism-based; conditions: in vivo, 336 h
[17] = Hepatotoxicity in ICR mouse assessed as effect on alanine aminotransferase level at 1000 nmol/kg, sc administered once daily for 2 weeks; assay type: toxicity, organism-based; conditions: in vivo, 336 h
[18] = Renal toxicity in ICR mouse assessed as effect on blood urea nitrogen level at 1000 nmol/kg, sc administered once daily for 2 weeks; assay type: organism-based; conditions: in vivo, 336 h
[19] = Renal toxicity in ICR mouse assessed as effect on serum creatinine level at 1000 nmol/kg, sc administered once daily for 2 weeks; assay type: organism-based; conditions: in vivo, 336 h
[20] = test system: Mus musculus; experiment: Reduction in body weight in C57BL/6 mouse model of diet induced obesity at 25 nmol/kg, sc administered once daily for 21 days relative to control; assay type: functional; parameters: scale not given: the % may be the effect or the level left; conditions: time 21 day
[21] = test system: Mus musculus; experiment: Anorectic activity in C57BL/6 mouse model of diet induced obesity assessed as reduction in food intake at 25 nmol/kg, sc administered once daily for 21 days relative to control; assay type: functional, organism-based; conditions: time 21.0 day
[22] = test system: Mus musculus; experiment: Reduction in body fat content in C57BL/6 mouse model of high-fat diet induced obesity at 25 nmol/kg, sc administered once daily for 21 days relative to control; assay type: functional; parameters: scale not given: the % may be the effect or the level left; conditions: time 21 day
[23] = test system: Mus musculus; experiment: Reduction in serum triglyceride in C57BL/6 mouse model of high-fat diet induced obesity at 25 nmol/kg, sc administered once daily for 21 days; assay type: functional, organism-based; conditions: time 21.0 day
[24] = test system: Mus musculus; experiment: Reduction in serum total cholesterol in C57BL/6 mouse model of high-fat diet induced obesity at 25 nmol/kg, sc administered once daily for 21 days; assay type: functional, organism-based; conditions: time 21.0 day
[25] = test system: Mus musculus; experiment: Increase in serum HDL level in C57BL/6 mouse model of high-fat diet induced obesity at 25 nmol/kg, sc administered once daily for 21 days; assay type: functional, organism-based; conditions: time 21.0 day
[26] = test system: Mus musculus; experiment: Reduction in serum LDL level in C57BL/6 mouse model of high-fat diet induced obesity at 25 nmol/kg, sc administered once daily for 21 days; assay type: functional, organism-based; conditions: time 21.0 day
[27] = test system: Mus musculus; experiment: Effect in normal chow diet fed C57BL/6 mouse assessed as reduction in body weight increase at 25 nmol/kg, sc administered once daily for 21 days (reference value: 10.8%); assay type: functional; parameters: scale not given: the % may be the effect or the level left; conditions: time 21 day
[28] = test system: Mus musculus; experiment: Anorectic effect in normal chow diet fed C57BL/6 mouse assessed as reduction in food intake at 25 nmol/kg, sc administered once daily for 21 days; assay type: functional, organism-based; conditions: time 21.0 day
[29] = test system: Mus musculus; experiment: Inhibition of fat mass gain in normal chow diet fed C57BL/6 mouse at 25 nmol/kg, sc administered once daily for 21 days; assay type: functional, organism-based; conditions: time 21.0 day
[30] = test system: Mus musculus; experiment: Hypoglycemic activity in normal chow diet fed C57BL/6 mouse assessed as fasting blood glucose at 25 nmol/kg, sc administered once daily for 21 days; assay type: functional, organism-based; conditions: time 21.0 day
[31] = test system: Mus musculus; experiment: Improvement in glucose tolerance in standard chow diet fed C57BL/6 mouse at 25 nmol/kg, sc administered once daily for 21 days; assay type: functional, organism-based; conditions: time 21.0 day
[32] = test system: Mus musculus; experiment: Reduction in body weight gain in db/db mouse at 25 nmol/kg, sc administered once daily for 21 days; assay type: functional, organism-based; conditions: time 21.0 day
[33] = test system: Mus musculus; experiment: Improvement in fasted blood glucose level in db/db mouse at 25 nmol/kg, sc administered once daily for 21 days; assay type: functional, organism-based; conditions: time 21.0 day
[34] = test system: Mus musculus; experiment: Improvement in HbA1c level in db/db mouse at 25 nmol/kg, sc administered once daily for 21 days; assay type: functional, organism-based; conditions: time 21.0 day
[35] = test system: Mus musculus; experiment: Improvement in glucose tolerance in db/db mouse at 25 nmol/kg, sc administered once daily for 42 days by OGTT; assay type: functional, organism-based; conditions: time 42.0 day
[36] = test system: Mus musculus; experiment: Reduction in HbA1c level in db/db mouse at 25 nmol/kg, sc administered once daily for 42 days by OGTT; assay type: functional, organism-based; conditions: time 42.0 day
[37] = test system: Mus musculus; experiment: Hypoglycemic activity in non-fasted db/db […] mouse assessed as reduction in blood glucose level at 25 nmol/kg, ip dosed 30 mins before glucose challenge measured up to 120 mins by OGTT method; assay type: functional, organism-based
[38] = test system: Mus musculus; experiment: Hypoglycemic activity in non-fasted db/db […] mouse assessed as increase in duration of time under normoglycemic state at 25 nmol/kg, sc by OGTT method relative to liraglutide; assay type: functional, organism-based
[39] = test system: Mus musculus; experiment: Improvement in glucose tolerance in db/db mouse assessed as time for superior hypoglycemic effect by measuring glucose AUC at 25 nmol/kg, sc administered once daily for 42 days by OGTT; assay type: functional; conditions: time 42 day

For `CC[C@H](C)[C@H](NC(=O)[C@H](CC(C)C)NC(=O)[C@H](Cc1c[nH]c2ccccc12)NC(=O)[C@H](CCC(=O)O)NC(=O)[C@@H](NC(=O)[C@H](Cc1ccccc1)NC(=O)[C@H](CCC(=O)O)NC(=O)[C@H](CCCCNC(=O)CC[C@H](NC(=O)C(CCCCCCCCCNC(=O)COC(=O)C(C)(C)CCCOc1cc(C)ccc1C)NC(=O)COC(=O)C(C)(C)CCCOc1cc(C)ccc1C)C(=O)O)NC(=O)[C@H](C)NC(=O)[C@H](C)NC(=O)[C@H](CCC(=O)O)NC(=O)[C@H](CCC(=O)O)NC(=O)[C@H](CCC(=O)O)NC(=O)[C@H](CC(C)C)NC(=O)[C@H](Cc1ccc(O)cc1)NC(=O)[C@H](CCC(=O)O)NC(=O)[C@@H](NC(=O)[C@@H](NC(=O)[C@H](CC(=O)O)NC(=O)[C@H](CC(N)=O)NC(=O)[C@@H](NC(=O)[C@H](Cc1ccc(O)cc1)NC(=O)[C@@H](NC(=O)CNC(=O)[C@H](CCC(=O)O)NC(=O)CNC(=O)[C@@H](N)Cc1cnc[nH]1)[C@@H](C)O)[C@@H](C)O)C(C)C)[C@@H](C)O)[C@@H](C)CC)C(=O)N[C@@H](CCCCN)C(=O)NCC(=O)N[C@@H](CCCCN)C(=O)N1CCC[C@H]1C(=O)N[C@@H](CO)C(=O)N[C@@H](CO)C(=O)NCC(=O)N[C@@H](C)C(=O)N1CCC[C@H]1C(=O)N1CCC[C@H]1C(=O)N1CCC[C@H]1C(=O)N[C@@H](CO)C(=O)O` (some centres undefined) (H-HGEGTYTNDVTEYLEEEAAK([γGlu-X1])EFIEWLIKGKPSSGAPPPS-OH), the EC50 [1] was 0.17 nM, the Activity [2] was “Active” and the half-life at 1000 ng/ml [3] was 37.6 h. For the same compound, the K [4] was 13.3, the Time [5] was 24 h and the half-life [6] was 7 h. For the same compound, the Tmax [7] was 4 h, the Activity [8] was “Active” and the Activity [9] was “Active”. For the same compound, the Activity [10] was “Active”, the Activity [11] was “Dose-dependent effect” and the Activity [12] was “Dose-dependent effect”. The Activity [13] was “Active”, the Activity [14] was “Active” and the Activity [15] was 48.3%. For the same compound, the Activity [16] was “Non-Toxic”, the Activity [17] was “Non-Toxic” and the Activity [18] was “Non-Toxic”. The Activity [19] was “Non-Toxic”, the Activity [20] was 15.4% and the Activity [21] was “Active”. The Activity [22] was 29.8%, the Activity [23] was “Active” and the Activity [24] was “Active”. The Activity [25] was “Active”, the Activity [26] was “Active” and the Activity [27] was 4.5%. For the same compound, the Activity [28] was “Active”, the Activity [29] was “Active” and the Activity [30] was “inactive”. For the same compound, the Activity [31] was “inactive”, the Activity [32] was “Active” and the Activity [33] was “Active”. The Activity [34] was “Active”, the Activity [35] was “Active” and the Activity [36] was “Active”. The Activity [37] was “Active”, the Activity [38] was “Active” and the Time [39] was 84 days.
